# From paper PMC11223215, “Metronidazole Interaction with Cu^2+ and Zn^2+: Speciation Study in Aqueous Solution and Biological Activity Evaluation” (ACS Omega, 2024)
# Like-named read-outs stand apart in the source and are kept apart here.
# What was measured:
# [1] = test system: Trypanosoma cruzi Tulahuen CL2 amastigote stage; assay: In vitro activity against T. cruzi; assay type: cell-based; settings: T. cruzi Tulahuen CL2 amastigotes on MRC-5 cells, 7 days
# Procedure: (§1) Briefly, S. aureus and E. coli were cultured in MHT (Mueller Hinton Broth) and maintained on TSA (Tryptone Soy Agar). T. cruzi, Tulahuen CL2 galactosidase strain (nifurtimox- sensitive), was maintained on MRC-5SV2 (human lung fibroblast) cells in MEM medium, supplemented with 200 mmol L^–1L-glutamine, 16.5 mmol L^–1 NaHCO3, and 5% inactivated fetal calf serum. The T. b. brucei Squib 427 strain (suramine-sensitive) and T. b. rhodesiense STIB-900 strain were maintained in Hirumi’s Modified Iscove’s medium-9 (HMI-9) medium, supplemented with 10% inactivated fetal calf serum. MRC-5SV2 cells were cultured in MEM + Earle’s salts-medium, supplemented with 2 mmol L^–1L-glutamine, 16.5 mmol L^–1 NaHCO3, and 5% inactivated fetal calf serum. All cultures were incubated at 37 °C under an atmosphere of 5% CO2.
# The assay was performed at 37 °C under an atmosphere of 5% CO2 in sterile 96-well microtiter plates, each well containing 10 μL of the aqueous compound together with MRC-5 cell/parasite inoculum (190 μL; 4 × 10^3 cells/well + 4 × 10^4 parasites/well). The compounds were tested at 64, 16, 4, 1, and 0.25 μmol L^–1. Parasite growth was compared to that of untreated-infected controls and uninfected controls. After 7 days of incubation, parasite burdens were assessed after adding the substrate CPRG [chlorophenolred β-D-galactopyranoside; 50 μL/well of a solution of CPRG (15.2 mg); and Nonidet (250 μL) in PBS (100 mL)]. The sample was analyzed spectrophotometrically at 540 nm after 4 h. The results were expressed as % reduction in parasite burden compared to control wells, and an IC50 was calculated.
# [2] = test system: Trypanosoma brucei brucei Squib-427 strain, suramin-sensitive, trypomastigote stage; assay: In vitro activity against T. b. brucei; assay type: cell-based; settings: T. b. brucei Squib-427 trypomastigotes, 3 days, resazurin
# Procedure: as §1
# (§2) The assay was performed at 37 °C under an atmosphere of 5% CO2 in sterile 96-well microtiter plates, each well containing the aqueous compound (10 μL) dilution together with the parasite suspension [190 μL; 1.5 × 10^3 parasites/well (T. b. brucei) or 4 × 10^3 parasites/well (T. rhodesiense)]. The compounds were tested at 64, 16, 4, 1, and 0.25 μmol L^–1. Parasite growth was compared to untreated-infected controls and uninfected controls. After 3 days of incubation, parasite growth was assessed fluorimetrically after addition of resazurin [50 μL; 50 μg/mL in phosphate buffer] to each well. After 6 h (T. b. rhodesiense) or 24 h (T. b. brucei) at 37 °C, fluorescence was measured (λex 550 nm, λem 590 nm). The results were expressed as % reduction in parasite growth/viability compared to control wells, and an IC50 was calculated.
# [3] = test system: Trypanosoma brucei rhodesiense STIB900 strain, drug susceptible, trypomastigote stage; assay: In vitro activity against T. b. rhodesiense; assay type: cell-based; settings: T. b. rhodesiense STIB900 trypomastigotes, 3 days, resazurin
# Procedure: as §1, §2
# Staphylococcus aureus = assay: In vitro activity against S. aureus; assay type: cell-based; settings: resazurin
# Procedure: as §1
# (§3) The assays were performed at 37 °C in sterile 96-well microtiter plates, each well containing 10 μL of aqueous compound together with a bacterial/fungal/MRC-5 inoculum (190 μL; 5 × 10^3 CFU/mL). The compounds were tested at 64, 16, 4, 1, and 0.25 μ-mol L^–1. Bacterial/fungal/MRC-5 growth was compared to untreated-control wells (100% growth) and medium-control wells (0% cell growth). After 3 days of incubation, 50 μL of resazurin was added in each well. After 30 min at 37 °C, the fluorescence was measured at λex = 550 nm and λem = 590 nm. The results are expressed as % reduction in cell growth/viability compared to control wells, and IC50 values were determined.
# Escherichia coli = assay: In vitro activity against E. coli; assay type: cell-based; settings: resazurin
# Procedure: as §1, §3
# [4] = test system: Leishmania infantum (intracellular amastigotes); assay: In vitro activity against L. infantum; assay type: cell-based
# Candida albicans = assay: In vitro activity against C. albicans; assay type: cell-based
# Procedure: as §3
# Aspergillus fumigatus = assay: In vitro activity against A. fumigatus; assay type: cell-based
# Procedure: as §3
# [5] = test system: MRC-5 human fetal lung fibroblasts; assay: Cytotoxicity on MRC-5 cells; assay type: cell-based; settings: MRC-5 human fetal lung fibroblasts cytotoxicity
# Procedure: as §3, with “Briefly, S. aureus and E. coli were cultured in MHT (Mueller Hinton Broth) and maintained on TSA (Tryptone Soy Agar). […] The T. b. brucei Squib 427 strain (suramine-sensitive) and T. b. rhodesiense STIB-900 strain were maintained in Hirumi’s Modified Iscove’s medium-9 (HMI-9) medium, supplemented with 10% inactivated fetal calf serum. […] All cultures were incubated at 37 °C under an atmosphere of 5% CO2. The assays” for “The assays”
# [6] = test system: Primary peritoneal mouse macrophages (PMM); assay: Cytotoxicity on primary peritoneal mouse macrophages; assay type: cell-based
# [7] = Cytotoxicity on MRC-5 cells; assay type: cell-based; settings: MRC-5 SV2 human fetal lung fibroblasts; MRC-5 human fetal lung fibroblasts cytotoxicity
# Procedure: as §3, with “Briefly, S. aureus and E. coli were cultured in MHT (Mueller Hinton Broth) and maintained on TSA (Tryptone Soy Agar). […] The T. b. brucei Squib 427 strain (suramine-sensitive) and T. b. rhodesiense STIB-900 strain were maintained in Hirumi’s Modified Iscove’s medium-9 (HMI-9) medium, supplemented with 10% inactivated fetal calf serum. […] All cultures were incubated at 37 °C under an atmosphere of 5% CO2. The assays” for “The assays”
# [8] = Cytotoxicity on primary peritoneal mouse macrophages; assay type: cell-based; settings: primary peritoneal mouse macrophages (PMM)
# [9] = Sequestering ability of MNZ (pL0.5) toward Cu2+; assay type: physicochemical; settings: toward Cu^2+, t = 37 °C, I = 0.15 mol L^–1, pH = 7.4
# Excerpt: (§4) The tendency of a ligand to complex a free metal cation in solution to form metal–ligand species is expressed as the sequestering ability. To describe the sequestering ability of a ligand toward a certain metal cation, however, the mere knowledge of formation constants is not enough as it is necessary to consider all the possible interactions that both ligand and metal cation may have with all the species present in solution. In order to define it quantitatively, the empirical parameter pL0.5 was introduced, which represents the cologarithm of the ligand concentration necessary to sequester 50% of the metal cation in traces.[34],[35] The calculation is based on the following Boltzmann-type sigmoidal equation: [drawing 33] 3 where χ is the sum of molar fractions of the different complex species and pL is the cologarithm of the total ligand concentration.
# (§5) A comparison between the sequestering ability of MNZ toward Zn^2, Cu^2+, and Ca^2+ (one of the main metal cations present in human body and previously studied in our recent work[30]) was evaluated under physiological conditions.
# [10] = Sequestering ability of MNZ (pL0.5) toward Zn2+; assay type: physicochemical; settings: toward Zn^2+, t = 37 °C, I = 0.15 mol L^–1, pH = 7.4
# Excerpt: as §4, §5
# [11] = Sequestering ability of MNZ (pL0.5) toward Ca2+; assay type: physicochemical; settings: toward Ca^2+, t = 37 °C, I = 0.15 mol L^–1, pH = 7.4
# Excerpt: as §4, §5
# [12] = Trypanosoma cruzi, MRC5, 168 h, read-out: IC50
# [13] = Staphylococcus aureus, read-out: IC50
# [14] = Escherichia coli, read-out: IC50
# [15] = Candida albicans, read-out: IC50
# [16] = Trypanosoma brucei, 72 h, read-out: IC50
# [17] = Leishmania infantum, read-out: IC50
structure (smiles),measurement,setting,value
O=C(Cn1ccnc1[N+](=O)[O-])NCc1ccccc1 [Benznidazol],IC50,[1]; [12],0.43 µg/mL
[Cl][Cu][Cl] [Cu^2+],IC50,[1],>2.42 µg/mL
same,IC50,[2],0.75 µg/mL
same,IC50,[3],0.94 µg/mL
same,IC50,Staphylococcus aureus,>2.42 µg/mL
same,IC50,Escherichia coli,>2.42 µg/mL
same,IC50,[4],>2.42 µg/mL
same,IC50,Candida albicans,>2.42 µg/mL
same,IC50,Aspergillus fumigatus,>2.42 µg/mL
same,CC50,[5],>2.42 µg/mL
same,CC50,[6],>2.42 µg/mL
C[C@H]1c2cccc(O)c2C(=O)C2=C(O)[C@]3(O)C(=O)C(C(N)=O)=C(O)[C@@H](N(C)C)[C@@H]3[C@@H](O)[C@@H]21 [Doxycycline],IC50,Staphylococcus aureus; [13],0.08 µg/mL
same,IC50,Escherichia coli; [14],0.64 µg/mL
Nc1[nH]c(=O)ncc1F [Flucytosine],IC50,Candida albicans; [15],0.51 µg/mL
"Cc1ncc([N+](=O)[O-])n1CCO [MNZ(L), 2-methyl-5-nitro-1H-imidazole-1-ethanol]",IC50,[1]; [12],> 5.64 µg/mL
same,IC50,[2]; [16],> 5.64 µg/mL
same,IC50,[3]; [16],> 5.64 µg/mL
same,IC50,Staphylococcus aureus; [13],> 5.64 µg/mL
same,IC50,Escherichia coli; [14],> 5.64 µg/mL
same,IC50,[4]; [17],> 5.64 µg/mL
same,IC50,Candida albicans; [15],> 5.64 µg/mL
same,IC50,"Aspergillus fumigatus; Aspergillus fumigatus, read-out: IC50",> 5.64 µg/mL
same,CC50 at 3 days,[7],> 5.64 µg/mL
same,CC50,[8],> 5.64 µg/mL
same,pL0.5,[9],4.3
same,pL0.5,[10],3.1
same,pL0.5,[11],1.9
CCCCCCCCCCCCCCCCOP(=O)([O-])OCC[N+](C)(C)C [Miltefosine],IC50,[4]; [17],2.05 µg/mL
Cc1ccc(C(=O)Nc2ccc(S(=O)(=O)O)c3cc(S(=O)(=O)O)cc(S(=O)(=O)O)c23)cc1NC(=O)c1cccc(NC(=O)Nc2cccc(C(=O)Nc3cc(C(=O)Nc4ccc(S(=O)(=O)O)c5cc(S(=O)(=O)O)cc(S(=O)(=O)O)c45)ccc3C)c2)c1 [Suramine],IC50,[2]; [16],0.03 µg/mL
same,IC50,[3]; [16],0.07 µg/mL
[Cl-].[Cl-].[Zn+2] [Zn^2+],IC50,[1],>1.79 µg/mL
same,IC50,[2],>1.79 µg/mL
same,IC50,[3],>1.79 µg/mL
same,IC50,Staphylococcus aureus,>1.79 µg/mL
same,IC50,Escherichia coli,>1.79 µg/mL
same,IC50,[4],>1.79 µg/mL
same,IC50,Candida albicans,>1.79 µg/mL
same,IC50,Aspergillus fumigatus,>1.79 µg/mL
same,CC50,[5],>1.79 µg/mL
same,CC50,[6],>1.79 µg/mL
